Assay [1] addresses T1, p34^cdc2/cyclin B (CDC2) (Homo sapiens, UniProt P06493).
T1 construct: made in house; host or cells: Sf9 insect cells (baculovirus co-infection)
The assay is described as follows: CDK inhibition assay, p34cdc2/cyclin B kinase, histone H1 phosphorylation. It is filed as biochemical. The method, then: Cyclin-dependent kinases (p34^cdc2, p33^cdk2) and cyclins (cyclin B, E) are produced in Sf9 insect cells coinfected with appropriate baculoviral constructs. The cells are harvested 68-72 hrs post infection in lysis buffer for 30 min on ice and the soluble fraction is recovered by centrifugation at 14.000 g for 10 min. The protein extract is stored at −80° C.
Lysis buffer: 50 mM Tris pH 7.4, 150 mM NaCl, 5 mM EDTA, 20 mM NaF, 1% Tween, 1 mM DTT, 0.1 mM PMSF, leupeptine, aprotonine.
To carry out experiments on kinetics under linear conditions, the final point test system for kinase activity measurement is used. The kinase is added to reaction mixture in such a way as to obtain linear activity with respect to the concentration of enzyme and with respect to time.
The p34^cdc2 and p33^cdk2 kinase inhibition determination involves the use of 1 mg/ml histone H1 (Sigma, type III-S) in the presence of 15 μM [γ-^32P]ATP ([…]) (Amersham) in a final volume of 20 μl. Kinase activity is determined at 30° C. in the kinase buffer.
Tested compounds are usually dissolved to 100 mM solutions in DMSO, final concentration of DMSO in reaction mixture never exceeds 1%. The controls contain suitable dilutions of DMSO.
After 10 min, addition 3×SDS sample buffer stops the incubations. Phosphorylated proteins are separated electrophoretically using 12.5% SDS polyacrylamide gel. The measurement of kinase activity is done using digital image analysis.
The kinase activity is expressed as a percentage of maximum activity, the apparent inhibition constants are determined by graphic analysis (FIG. 1).
Kinase buffer: 50 mM Hepes pH 7.4, 10 mM MgCl2, 5 mM EGTA, 10 mM 2-glycerolphosphate, 1 mM NaF, 1 mM DTT

The target in assay [2] is IκB-α kinase. The assay is described as follows: IκB-α kinase inhibitory activity, in vitro kinase assay. In kind it is biochemical.
Assay [3] deals with MCF7. The assay is described as follows: In vitro cytotoxic activity, MTT assay, MCF7. It is filed as cell-based. The following applies: Homo sapiens, 72 hours. The source says: One of the parameters used, as the basis for colorimetric assays is the metabolic activity of viable cells. For example, a microtiter assay, which uses the tetrazolium salt MTT, is now widely used to quantitate cell proliferation and cytotoxicity. For instance, this assay is used in drug screening programs and in chemosensitivity testing. Because only metabolically active cells cleave tetrazolium salts, these assays detect viable cells exclusively. In the case of MTT assay, yellow soluble tetrazolium salt is reduced to coloured water-insoluble formazan salt. After it is solubilized, the formazan formed can easily and rapidly be quantified in a conventional ELISA plate reader at 570 nm (maximum absorbance). The quantity of reduced formazan corresponds to number of vital cells in the culture.
Human T-lymphoblastic leukemia cell line CEM; promyelocytic HL-60 and monocytic U937 leukemias; breast carcinoma cell lines MCF-7, BT549, MDA-MB-231; glioblastoma U87MG cells; cervical carcinoma cells HELA; sarcoma cells U2OS and Saos2; hepatocellular carcinoma HepG2; mouse immortalized bone marrow macrophages B2.4 and B10A.4; P388D1 and L1210 leukemia; B16 and B16F10 melanomas were used for routine screening of compounds. The cells were maintained in Nunc/Corning 80 cm^2 plastic tissue culture flasks and cultured in cell culture medium (DMEM with 5 g/l glucose, 2 mM glutamine, 100 U/ml penicillin, 100 μg/ml streptomycin, 10% fetal calf serum and sodium bicarbonate).
The cell suspensions that were prepared and diluted according to the particular cell type and the expected target cell density (2.500-30.000 cells per well based on cell growth characteristics) were added by pipette (80 μl) into 96/well microtiter plates. Inoculates were allowed a pre-incubation period of 24 hours at 37° C. and 5% CO2 for stabilisation. Four-fold dilutions of the intended test concentration were added at time zero in 20 μl aliquots to the microtiter plate wells. Usually, test compound was evaluated at six 4-fold dilutions. In routine testing, the highest well concentration was 266.7 μM, but it can be the matter of change dependent on the agent. All drug concentrations were examined in duplicates. Incubations of cells with the test compounds lasted for 72 hours at 37° C., in 5% CO2 atmosphere and 100% humidity. At the end of incubation period, the cells were assayed by using the MTT. Ten microliters of the MTT stock solution were pipetted into each well and incubated further for 1-4 hours. After this incubation period, formazan was solubilized by addition of 100 μl/well of 10% SDS in water (pH=5.5) followed by further incubation at 37° C. overnight. The optical density (OD) was measured at 540 nm with the Labsystem iEMS Reader MF (UK). The tumour cell survival (TCS) was calculated using the following equation: TCS=(ODdrug exposed well/mean ODcontrol wells)×100%. The IC50 value, the drug concentration lethal to 50% of the tumour cells, was calculated from the obtained dose response curves (FIG. 2).

Assay [4] concerns K-562. As to the kind of experiment: In vitro cytotoxic activity, MTT assay, K-562. In kind it is cell-based. The following applies: Homo sapiens, K562, 72 hours.

The structures appear in SMILES notation. Several values for one entry are separate records, joined by “and”; a condition that tells them apart may be missing. Equal values may be shown once.

T1 sequence (P06493 whole entry, species assumed): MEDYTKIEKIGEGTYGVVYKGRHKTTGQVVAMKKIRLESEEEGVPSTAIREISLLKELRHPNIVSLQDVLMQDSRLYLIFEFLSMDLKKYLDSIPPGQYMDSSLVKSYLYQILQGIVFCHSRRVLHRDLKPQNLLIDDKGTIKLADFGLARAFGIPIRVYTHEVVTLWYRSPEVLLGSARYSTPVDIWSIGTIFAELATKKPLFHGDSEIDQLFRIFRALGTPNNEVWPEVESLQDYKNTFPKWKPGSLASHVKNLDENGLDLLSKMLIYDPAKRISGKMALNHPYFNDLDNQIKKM
T1 sequence (P14635 whole entry partner, species assumed): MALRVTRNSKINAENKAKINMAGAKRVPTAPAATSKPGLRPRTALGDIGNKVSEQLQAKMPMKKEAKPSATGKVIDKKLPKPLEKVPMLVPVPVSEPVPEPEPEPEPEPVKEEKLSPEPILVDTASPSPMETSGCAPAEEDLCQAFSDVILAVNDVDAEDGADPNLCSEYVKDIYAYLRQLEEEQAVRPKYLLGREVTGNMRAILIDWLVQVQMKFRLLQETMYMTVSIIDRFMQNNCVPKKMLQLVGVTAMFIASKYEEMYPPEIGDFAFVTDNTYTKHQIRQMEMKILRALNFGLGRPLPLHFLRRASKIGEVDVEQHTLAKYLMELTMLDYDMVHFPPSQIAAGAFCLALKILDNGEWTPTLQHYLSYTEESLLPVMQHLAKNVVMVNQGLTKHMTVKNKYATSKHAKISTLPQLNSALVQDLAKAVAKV

As for `CC(=O)Oc1cccc(CNc2nc(N[C@@H](CO)C(C)C)nc3c2nnn3C(C)C)c1`, the IC50 in assay [1] is 20 µM; in assay [2], above 100 µM; in assay [3], 28.2 µM; in assay [4] it was 31.7 µM.

Consider `CC[C@H](CO)Nc1nc(Nc2cccc(Cl)c2)c2nnn(C(C)C)c2n1`, for which the IC50 is 35 µM in assay [1]; > 100 µM and 80 µM in assay [2]; above 100 µM in assay [3]; above 100 µM in assay [4].

Take `CC(C)[C@H](CO)Nc1nc(NCc2ccccc2O)c2nnn(C(C)C)c2n1`: the IC50 in assay [1] is 7 µM; in assay [2], above 100 µM; in assay [3], 24 µM; in assay [4], 25 µM.

With `CC(C)n1nnc2c(Nc3cccc(Cl)c3)nc(NCCCO)nc21`, the IC50 in assay [2], in assay [3] and in assay [4] was above 100 µM in each case.

For `CC(C)[C@H](CO)Nc1nc(Nc2ccc(Br)cc2)c2nnn(C(C)C)c2n1`, the half-inhibitory concentration (IC50) in assay [1] is 35 µM; in assay [2], above 100 µM; in assay [3], 64 µM; in assay [4], 75 µM.

`CC(C)[C@H](CO)Nc1nc(Nc2ccc(N)c(Cl)c2)c2nnn(C(C)C)c2n1`: the IC50 in assay [1] is 40 µM; in assay [2] it was above 100 µM; in assay [3] it was 22.5 µM; in assay [4], 28.9 µM.

As for `CC(C)n1nnc2c(Nc3cccc(Cl)c3)nc(NCCO)nc21`, the 50% inhibitory concentration (IC50) in assay [2], in assay [3] and in assay [4] was above 100 µM each time.

With `CC(C)[C@H](CO)Nc1nc(Nc2ccc(Cl)cc2)c2nnn(C(C)C)c2n1`, the IC50 turned out to be 35 µM in assay [1], 90 µM in assay [2], 17.6 µM in assay [3] and 19.4 µM in assay [4].

For the compound `CC(C)n1nnc2c(Nc3cccc(Cl)c3)nc(N(CCO)CCO)nc21`, the IC50 is 35 µM in assay [1], above 100 µM in assay [2], 100 µM in assay [3] and above 100 µM in assay [4].

Consider `CC(=O)c1ccccc1CNc1nc(N[C@@H](CO)C(C)C)nc2c1nnn2C(C)C`, for which the half-maximal inhibitory concentration (IC50) in assay [1] is 25 µM; in assay [2] it was above 100 µM; in assay [3] it was 40.8 µM; in assay [4], 34.9 µM.

In the case of `CC(C)n1nnc2c(Nc3cccc(Cl)c3)nc(NCCCN)nc21`, the half-maximal inhibitory concentration (IC50) in assay [1] is above 100 µM; in assay [2], above 100 µM; in assay [3], 100 µM; in assay [4], above 100 µM.

With `CC(C)[C@H](CO)Nc1nc(Nc2cccc(Cl)c2)c2nnn(C(C)C)c2n1`, the 50% inhibitory concentration (IC50) in assay [1] is 20 µM; in assay [2], 80 µM; in assay [3] it was 80 µM; in assay [4], 96 µM.

Take `CC(C)n1nnc2c(Nc3cccc(Cl)c3)nc(NC3CCCCC3N)nc21` (centres unmarked): the IC50 is 7 µM in assay [1], above 100 µM in assay [2], 8.9 µM in assay [3] and 12.2 µM in assay [4].

Regarding `Cn1nnc2c(NCc3c(O)cc(Cl)cc3O)nc(NCCO)nc21`, the values for the IC50 in assay [1] and in assay [2] were 22 µM and above 100 µM, respectively.

Turning to `Cn1nnc2c(Nc3ccc(C(=O)O)c(Cl)c3)nc(NCCO)nc21`, the half-inhibitory concentration (IC50) in assay [1] is 52 µM; in assay [2], above 100 µM.

For `Cn1nnc2c(Nc3ccccc3)nc(NCCO)nc21` [2-hydroxyethylamino / anilino / methyl], the IC50 is 42 µM in assay [1] and above 100 µM in assay [2].

Regarding `COc1cc(O)c(CNc2nc(N[C@@H](CO)C(C)C)nc3c2nnn3C(C)C)c(O)c1`, the IC50 was 10 µM in assay [1] and above 100 µM in assay [2].

In the case of `CC[C@H](CO)Nc1nc(Nc2ccc(Cl)c(C(=O)O)c2)c2nnn(C(C)C)c2n1`, the IC50 is 40 µM in assay [1] and above 100 µM in assay [2].

As to `CC(C)[C@H](CO)Nc1nc(NCc2cccc(O)c2)c2nnn(C(C)C)c2n1`, the IC50 in assay [1] is 8 µM; in assay [2] it was 80 µM; in assay [3], 18 µM; in assay [4], 17.5 µM.

In the case of `CC(C)[C@H](CO)Nc1nc(Nc2ccc(O)c(C(=O)O)c2)c2nnn(C(C)C)c2n1`, the IC50 is 34 µM in assay [1], above 100 µM in assay [2], 24 µM in assay [3] and 28 µM in assay [4].

As for `CC[C@H](CO)Nc1nc(NCc2cc(O)c(Cl)cc2O)c2nnn(C(C)C)c2n1`, the IC50 in assay [1] was 16 µM; in assay [2], above 100 µM.

With `CC(=O)Oc1cccc(CNc2nc(NCCO)nc3c2nnn3C)c1`, the concentration for half-maximal inhibition (IC50) is 48 µM in assay [1] and 50 µM in assay [2].

As to `CC(C)[C@H](CO)Nc1nc(Nc2ccccc2)c2nnn(C(C)C)c2n1`, the 50% inhibitory concentration (IC50) in assay [1] came to 40 µM; in assay [3] it was 80 µM; in assay [4] it was 100 µM.

`CC(C)[C@H](CO)Nc1nc(NCc2c(N)cccc2Cl)c2nnn(C(C)C)c2n1`: the values for the IC50 in assay [1] and in assay [2] were 10 µM and above 100 µM, respectively.

As for `CC(C)[C@H](CO)Nc1nc(NCc2ccc(Cl)c(O)c2O)c2nnn(C(C)C)c2n1`, the IC50 was 11 µM in assay [1] and above 100 µM in assay [2].

With `CC(=O)Oc1ccccc1CNc1nc(N[C@@H](CO)C(C)C)nc2c1nnn2C(C)C`, the IC50 in assay [1] was found to be 10 µM; in assay [2], 85 µM; in assay [3], 24.1 µM; in assay [4], 24 µM.

On to `CC(=O)c1cccc(CNc2nc(N[C@@H](CO)C(C)C)nc3c2nnn3C(C)C)c1`, for which the 50% inhibitory concentration (IC50) in assay [1] is 40 µM; in assay [2], above 100 µM; in assay [3], 47.6 µM; in assay [4], 50.6 µM.

Turning to `Cn1nnc2c(NCc3ccccc3O)nc(NCCO)nc21`, the half-inhibitory concentration (IC50) in assay [1] is 23 µM; in assay [2], 45 µM.

In the case of `CC(C)[C@H](CO)Nc1nc(Nc2ccc(Cl)c(C(=O)O)c2)c2nnn(C(C)C)c2n1`, the IC50 amounted to 30 µM in assay [1], 80 µM in assay [2], 21 µM in assay [3] and 42 µM in assay [4].

In the case of `CC[C@H](CO)Nc1nc(Nc2ccc(C(=O)O)c(Cl)c2)c2nnn(C(C)C)c2n1`, the 50% inhibitory concentration (IC50) was determined as 35 µM in assay [1] and 70 µM in assay [2].

Consider `CC(C)[C@H](CO)Nc1nc(NC(CO)c2ccccc2)c2nnn(C(C)C)c2n1` (mixture of isomers), for which the half-inhibitory concentration (IC50) in assay [1] was 50 µM; in assay [2], above 100 µM.

Take `Cn1nnc2c(Nc3ccc(O)c(C(=O)O)c3)nc(NCCO)nc21`: the IC50 in assay [1] was 58 µM; in assay [2] it was above 100 µM.

Consider `CC[C@H](CO)Nc1nc(NCc2ccccc2C(C)=O)c2nnn(C(C)C)c2n1`, for which the IC50 in assay [1] is 37 µM; in assay [2], above 100 µM.

For `CC(C)[C@H](CO)Nc1nc(Nc2ccc(Cl)c(N)c2)c2nnn(C(C)C)c2n1`, the concentration for half-maximal inhibition (IC50) came out at 24 µM in assay [1], 16.4 µM in assay [3] and 18.8 µM in assay [4].

On to `Cn1nnc2c(NCc3cccc(O)c3)nc(NCCO)nc21`, for which the concentration for half-maximal inhibition (IC50) was 17 µM in assay [1] and 40 µM in assay [2].

Regarding `CC[C@H](CO)Nc1nc(NCc2ccccc2O)c2nnn(C(C)C)c2n1`, the results for the IC50 in assay [1] and in assay [2] were 14 µM and 80 µM, respectively.

Take `CC[C@H](CO)Nc1nc(NCc2cccc(OC(C)=O)c2)c2nnn(C(C)C)c2n1`: the concentration for half-maximal inhibition (IC50) in assay [1] was 24 µM; in assay [2] it was above 100 µM.
